Assay results published in patent US10596172B2 (Celgene CAR LLC, priority 2008, dated 2020).
Read-outs that look alike come from different tables or passages of the source.

Tested on: B cell lymphoma cell lines
Test: B cell lymphoma proliferation assay
Assay type: cell-based
[1] = Homo sapiens, DOHH-2, DOHH2 B cell lymphoma cell line, read-out: EC50 (μM) DOHH2
[2] = Homo sapiens, WSUDLCL2, WSU-DLCL2 B cell lymphoma cell line, read-out: EC50 (μM) WSU-DLCL2
[3] = DHL4 B cell lymphoma cell line, read-out: EC50 (μM) DHL4

Row | EC50 [1] | EC50 [2] | EC50 [3] | Compound
1 | 0.1 to 1 µM | 1 to 10 µM | – | C=CC(=O)Nc1cccc(Nc2nc(Nc3cccc(OCCO)c3)ncc2F)c1 [Compound I-105, N-(3-(5-fluoro-2-(3-(2-hydroxyethoxy)phenylamino)pyrimidin-4-ylamino)phenyl)acrylamide]
2 | > 10 µM | > 10 µM | – | C=CC(=O)Nc1cccc(Oc2nc(Nc3ccc(OC)nc3)ncc2F)c1 [Compound I-217]
3 | 1 to 10 µM | – | 1 to 10 µM | C=CC(=O)Nc1cccc(Nc2nc(Nc3ccc4c(cnn4C(=O)OC(C)(C)C)c3)ncc2F)c1 [Compound I-151]
4 | > 10 µM | > 10 µM | 1 to 10 µM | C=CC(=O)Nc1cccc(Nc2nc(Nc3ccc(OC)nc3)ncc2C(C)=O)c1 [Compound I-189, N-{3-[5-Acetyl-2-(6-methoxy-pyridin-3-ylamino)-pyrimidin-4-ylamino]-phenyl}-acrylamide]
5 | 1 to 10 µM | – | – | C=CC(=O)Nc1cccc(Nc2nc(Nc3ccc(OCCOC)nc3)ncc2C(C)=O)c1 [Compound I-122, N-(3-{5-Acetyl-2-[6-(2-methoxy-ethoxy)-pyridin-3-ylamino]-pyrimidin-4-ylamino}-phenyl)-acrylamide]
6 | 1 to 10 µM | – | – | C=CC(=O)N1CCOc2ccc(Nc3nc(Nc4ccc(N5CCOCC5)nc4)ncc3C(C)=O)cc21 [Compound I-168, 1-{6-[5-Acetyl-2-(6-morpholin-4-yl-pyridin-3-ylamino)-pyrimidin-4-ylamino]-2,3-dihydro-benzo[1,4]oxazin-4-yl}-propenone]
7 | 1 to 10 µM | – | – | C=CC(=O)Nc1cc(Nc2nc(Nc3ccc(OCCOC)cc3)ncc2F)ccc1F [Compound I-87, N-(2-fluoro-5-(5-fluoro-2-(4-(2-methoxyethoxy)phenylamino)pyrimidin-4-ylamino)phenyl)acrylamide]
8 | 1 to 10 µM | 1 to 10 µM | 1 to 10 µM | C=CC(=O)Nc1cccc(Nc2nc(Nc3ccc4c(c3)N(C(=O)C(F)(F)F)CCO4)ncc2F)c1 [Compound I-143, N-(3-(2-(4-trifluoroacetyl-2,3-dihydrobenzo[1,4]oxazin-6-yl)amino-5-fluoropyrimidin-4-ylamino)phenyl)acrylamide]
9 | 1 to 10 µM | – | – | C=CC(=O)Nc1cccc(Nc2nc(Nc3ccc(OCCO)nc3)ncc2C(C)=O)c1 [Compound I-121, N-(3-{5-Acetyl-2-[6-(2-hydroxy-ethoxy)-pyridin-3-ylamino]-pyrimidin-4-ylamino}-phenyl)-acrylamide]
10 | 1 to 10 µM | – | – | COCCOc1ccc(Nc2ncc(F)c(Nc3cccc(NC(=O)/C=C/CN4CC[C@H](O)C4)c3)n2)cc1 [Compound I-88, (S,E)-N-(3-(5-fluoro-2-(4-(2-methoxyethoxy)phenylamino)pyrimidin-4-ylamino)phenyl)-4-(3-hydroxypyrrolidin-1-yl)but-2-enamide]
11 | 1 to 10 µM | 1 to 10 µM | 1 to 10 µM | C=CC(=O)N1CCOc2ccc(Nc3nc(Nc4ccc(OCCOC)cc4)ncc3C(C)=O)cc21 [Compound I-150, 1-(6-{5-Acetyl-2-[4-(2-methoxy-ethoxy)-phenylamino]-pyrimidin-4-ylamino}-2,3-dihydro-benzo[1,4]oxazin-4-yl)-propenone]
12 | 0.1 to 1 µM | – | – | C=CC(=O)Nc1cccc(Oc2nc(Nc3cccc(OCC4CCCN(C)C4)c3)ncc2F)c1 (stereo not drawn) [Compound I-81, N-(3-(5-fluoro-2-(3-((1-methylpiperidin-3-yl)methoxy)phenylamino)pyrimidin-4-yloxy)phenyl)acrylamide]
13 | 1 to 10 µM | – | – | C=CC(=O)Nc1cccc(Nc2nc(Nc3ccc(OC)nc3)ncc2C#N)c1 [Compound I-173, N-(3-(5-cyano-2-(6-methoxypyridin-3-ylamino)pyrimidin-4-ylamino)phenyl)acrylamide]
14 | 1 to 10 µM | 1 to 10 µM | 1 to 10 µM | C=CC(=O)N1Cc2ccc(Nc3nc(Nc4ccc(OC)nc4)ncc3F)cc2C1 [Compound I-165, 1-(5-(5-fluoro-2-(6-methoxypyridin-3-ylamino)pyrimidin-4-ylamino)isoindolin-2-yl)prop-2-en-1-one]
15 | 1 to 10 µM | – | – | C=CC(=O)N1CCOc2ccc(Nc3nc(Nc4ccc(N5CCCC5=O)cc4)ncc3C(C)=O)cc21 [Compound I-152, 1-{4-[5-Acetyl-4-(4-acryloyl-3,4-dihydro-2H-benzo[1,4]oxazin-6-ylamino)-pyrimidin-2-ylamino]-phenyl}-pyrrolidin-2-one]
16 | – | 1 to 10 µM | – | C=CC(=O)Nc1cccc(Nc2nc(Nc3cccc(OCCN(CC)CC)c3)ncc2F)c1 [Compound I-298]
17 | 1 to 10 µM | – | – | C=CC(=O)N1CCOc2ccc(Nc3nc(Nc4ccc5c(c4)CC(=O)N5)ncc3C(C)=O)cc21 [Compound I-129, 5-[5-Acetyl-4-(4-acryloyl-3,4-dihydro-2H-benzo[1,4]oxazin-6-ylamino)-pyrimidin-2-ylamino]-1,3-dihydro-indol-2-one]
18 | 1 to 10 µM | – | 1 to 10 µM | C=CC(=O)Nc1cccc(Nc2nc(Nc3cccc(OCCCS(C)(=O)=O)c3)ncc2F)c1 [Compound I-138, 4-(3-acrylamidophenylamino)-5-fluoro-2-(3-(3-(methylsulfonyl)propoxy)phenylamino)-pyrimidine]

Row | EC50 [1] | EC50 [2] | EC50 [3] | Compound
19 | 1 to 10 µM | 1 to 10 µM | – | C=CC(=O)Nc1cccc(Nc2nc(Nc3cccc(OCCCN4CCOCC4)c3)ncc2F)c1 [Compound I-208, N-(3-(5-fluoro-2-(3-(3-morpholinopropoxy)phenylamino)pyrimidin-4-ylamino)phenyl)acrylamide]
20 | 1 to 10 µM | 1 to 10 µM | – | C=CC(=O)Nc1cccc(Nc2nc(Nc3cccc(OC)c3)ncc2C(N)=O)c1 [Compound I-210, 4-(3-acrylamidophenylamino)-2-(3-methoxyphenylamino)pyrimidine-5-carboxamide]
21 | 0.1 to 1 µM | – | – | C=CC(=O)Nc1cccc(Nc2nc(Nc3ccc(OCCCS(C)(=O)=O)nc3)ncc2F)c1 [Compound I-80, N-(3-(5-fluoro-2-(6-(3-(methylsulfonyl)propoxy)pyridin-3-ylamino)pyrimidin-4-ylamino)phenyl)acrylamide]
22 | 1 to 10 µM | 1 to 10 µM | – | C=CC(=O)Nc1cccc(Nc2nc(Nc3cccc(OC(C)(C)CO)c3)ncc2F)c1 [Compound I-91, N-(3-(5-fluoro-2-(3-(1-hydroxy-2-methylpropan-2-yloxy)phenylamino)pyrimidin-4-ylamino)phenyl)acrylamide]
23 | 1 to 10 µM | > 10 µM | – | C=CC(=O)Nc1cccc(Nc2nc(Nc3ccc(OC)nc3)ncc2OC)c1 [Compound I-192, N-(3-(5-methoxy-2-(6-methoxypyridin-3-ylamino)pyrimidin-4-ylamino)phenyl)acrylamide]
24 | – | 1 to 10 µM | – | C=CC(=O)Nc1cccc(Nc2nc(Nc3ccc(OCCOC)nc3)ncc2F)c1 [Compound I-103, N-(3-(5-fluoro-2-(6-(2-methoxyethoxy)pyridine-3-ylamino)pyrimidin-4-ylamino)phenyl)acrylamide]
25 | 1 to 10 µM | 1 to 10 µM | 1 to 10 µM | C=CC(=O)Nc1cccc(Nc2nc(Nc3ccccc3)ncc2C#N)c1 [Compound I-157, N-(3-(5-cyano-2-(phenylamino)pyrimidin-4-ylamino)phenyl)acrylamide]
26 | > 10 µM | – | – | C=CC(=O)Nc1cccc(Nc2nc(Nc3ccc(OCc4ccccn4)c(Cl)c3)ncc2F)c1 [Compound I-86, N-(3-(2-(3-chloro-4-(pyridin-2-ylmethoxy)phenylamino)-5-fluoropyrimidin-4-ylamino)phenyl)acrylamide]
27 | 1 to 10 µM | – | – | C=CC(=O)Nc1cccc(Nc2nc(Nc3ccc4c(c3)NCCO4)ncc2F)c1 [Compound I-174]
28 | 1 to 10 µM | – | 1 to 10 µM | C=CC(=O)N1Cc2ccc(Nc3nc(Nc4cccc(OC)c4)ncc3C(F)(F)F)cc2C1 [Compound I-132, 1-(5-(5-trifluoromethyl-2-(3-methoxyphenylamino)pyrimidin-4-yl)amino-1,3-dihydroisoindol-2-yl)2-propen-1-one]
29 | 1 to 10 µM | 1 to 10 µM | 1 to 10 µM | C=CC(=O)N1CCc2ccc(Nc3nc(Nc4ccc(OC)nc4)ncc3F)cc21 [Compound I-166, 1-(6-(5-fluoro-2-(6-methoxypyridin-3-ylamino)pyrimidin-4-ylamino)indolin-1-yl)prop-2-en-1-one]
30 | 1 to 10 µM | – | – | COCCOc1ccc(Nc2ncc(F)c(Nc3cccc(NC(=O)/C=C/CN4CC[C@@H](O)C4)c3)n2)cc1 [Compound I-89, (R,E)-N-(3-(5-fluoro-2-(4-(2-methoxyethoxy)phenylamino)pyrimidin-4-ylamino)phenyl)-4-(3-hydroxypyrrolidin-1-yl)but-2-enamide]
31 | 1 to 10 µM | 1 to 10 µM | 1 to 10 µM | C=CC(=O)N1CCOc2ccc(Nc3nc(Nc4ccc(OC)nc4)ncc3F)cc21 [Compound I-194, 1-(6-(5-fluoro-2-(6-methoxypyridin-3-ylamino)pyrimidin-4-ylamino)-2H-benzo[b][1,4]oxazin-4(3H)-yl)prop-2-en-1-one]
32 | 1 to 10 µM | – | – | C=CC(=O)N1CCOc2ccc(Nc3nc(Nc4ccc(OCCOC)cc4)ncc3F)cc21 [Compound I-141, 1-(6-(5-fluoro-2-(4-(2-methoxyethoxy)phenylamino)pyrimidin-4-ylamino)-2H-benzo[b][1,4]oxazin-4(3H)-yl)prop-2-en-1-one]
33 | 0.1 to 1 µM | – | – | C=CC(=O)Nc1cccc(Nc2nc(Nc3ccc(OCC4CCN(C)CC4)cc3)ncc2F)c1 [Compound I-90, N-(3-(5-fluoro-2-(4-((1-methylpiperidin-4-yl)methoxy)phenylamino)pyrimidin-4-ylamino)phenyl)acrylamide]
34 | 1 to 10 µM | 1 to 10 µM | – | C=CC(=O)Nc1cccc(Nc2nc(Nc3cccc(OCCCn4ccnc4)c3)ncc2F)c1 [Compound I-204, N-(3-(2-(3-(3-(1H-imidazol-1-yl)propoxy)phenylamino)-5-fluoropyrimidin-4-ylamino)phenyl)acrylamide]
35 | 0.1 to 1 µM | – | < 0.1 µM | C=CC(=O)Nc1cccc(Nc2nc(Nc3ccc(OC)c(OC)c3)ncc2F)c1 [Compound I-134, 4-(3acrylamidophenylamino)-5-fluoro-2-(3,4-dimethoxyphenylamino)-pyrimidine]
